Data set [1] deals with key signaling protein expression down-stream to A3AR activation in paw extracts. The data set can be described thus: Western blot analysis of key signaling proteins in paw extracts from AIA rats. In kind it is in vivo, rat. How it is done:
The hind paws were dissected above the ankle joint. The bony tissue was broken into pieces broken, snap frozen in liquid nitrogen and stored at −80° C. until use. The paw tissues were added to (4 ml/g tissue) RIPA extraction buffer containing 150 mM NaCl, 50 mM Tris, 1% NP40, 0.5% Deoxycholate and 0.1% SDS. Tissues were homogenized on ice with a polytron, centrifuged and the supernatans were subjected to Western Blot analysis
Western blot analysis (WB) of paw extracts were carried out according to the following protocol. Samples were rinsed with ice-cold PBS and transferred to ice-cold lysis buffer (TNN buffer, 50 mM Tris buffer pH=7.5, 150 mM NaCl, NP 40). Cell debris was removed by centrifugation for 10 min, at 7500×g. Protein concentrations were determined using the Bio-Rad protein assay dye reagent. Equal amounts of the sample (50 μg) were separated by SDS-PAGE, using 12% polyacrylamide gels. The resolved proteins were then electroblotted onto nitrocellulose membranes (Schleicher & Schuell, Keene, N.H., USA). Membranes were blocked with 1% BSA and incubated with the desired primary antibody (dilution 1:1000) for 24 h at 4° C. Blots were then washed and incubated with a secondary antibody for 1 h at room temperature. Bands were recorded using BCIP/NBT color development kit (Promega, Madison, Wis., USA). Data presented in the different figures are representative of at least four different experiments.
The hind paws of animals from the control and IB-MECA treated groups were dissected and after protein extraction the samples were subjected for WB analysis. […] The activation of the A3AR led to a 40% decrease in the RANKL protein expression level in paw extracts derived from IB-MECA treated AIA rats. […] This Chain of events led a 50% reduction in the expression level of TNF-α upon IB-MECA treatment.
For orientation: In western blotting, separated proteins are transferred to a membrane and probed.

Data set [2] can be described thus: Plasma half life in mice. In kind it is in vivo. How it is done: (§1) Based on the above conversion methods, the preferred dosage range for two specific A3AR agonist, e.g. IB-MECA and Cl-IB-MECA, would be less than 4 mg, typically within the range of about 0.01 to about 2 mg (about 0.14-28 micrograms/Kg, respectively) and desirably within the range of about 0.1 to 1.5 mg (about 1.4-21 micrograms/Kg, respectively). This dose may be administered once, twice or, at times, several times a day.

In data set [3] the test system is AIA rats. The data set can be described thus: Clinical disease score and paw thickness in the Adjuvant Induced Arthritis (AIA) rat model. It is filed as in vivo. How it is done: (§2) Female Lewis rats, aged 8-10 weeks, obtained from Harlan Laboratories (Jerusalem, Israel), were injected subcutaneously (SC) at the tail base with 100 μl of suspension composed of incomplete Freund's adjuvant with 10 mg/ml heat killed Mycobacterium tuberculosis. Each group contained 10 animals and each experiment was conducted at least three times.
(§3) Drugs were orally administered by gavage, twice daily. The […] received vehicle only (DMSO in a dilution corresponding to that of the drug) while the treatment groups received 10 μg/kg of IB-MECA. Treatment was initiated on day 14 after vaccination.
The animals were inspected every second day for clinical arthritis. The scoring system ranged from 0-4 of each limb: 0—no arthritis; 1—redness or swelling of one toe/finger joint; 2—redness and swelling of more than one toe/finger joints, 3—the ankle and tarsal-metatarsal joints involvement. 4—entire paw redness or swelling. The inflammatory intensity was also determined in accordance with the increase in the rat hind paw's diameter, measured by caliper (Mitotoyo, Tokyo, Japan).

The test system of data set [4] is Adjuvant Induced Arthritis (AIA), collagen induced arthritis (CIA) and thropomyosine induced arthritis. The settings on record: different experimental animal models; Baharav et al. 2004; cited from earlier work.
Data set [5] can be described thus: Plasma half life in human studies. To be noted: data not shown. It is filed as in vivo. How it is done: as §1
Data set [6] has as its system AIA rats. Kind of data set: Histological score of joints of AIA rats. It is filed as in vivo, rat. How it is done:
as §2, §3
The foot, knee and hip region of both vehicle and CF101 treated animals were collected and fixed in 10% buffered formalin and decalcified in hydrochloric acid (Calci-Clear Rapid) (Pational Diagnostics, Gr, USA) for 24 h. The specimens were then processed for paraffine embedding, histologic 4-μm sections were cut and stained with hematoxylin and eosin. The sections were assessed by a pathologist blinded to the treatment protocols, and each joint was scored separately. The histology score was assessed as follows: A score of 0 to 4 for the extent of inflammatory cells' infiltration to was used according to the followed: 0—Normal; 1—minimal inflammatory infiltration; 2—mild infiltration; 3—moderate infiltration; 4—marked infiltration. The pannus formation joint tissues, synovial lining cell hyperplasia. The score was graded […]: 0—normal; 1—minimal loss of cortical bone at a few sites; 2—mild loss of cortical trabecular bone; 3—moderate loss of bone at many sites; 4—marked loss of bone at many sites; 5—marked loss of bone at many sites with fragmenting and full thickness penetration of inflammatory process or pannus into the cortical bone. The mean of all the histological parameter scores were designated “Histology Score”.
At day 23 after the disease induction, the animals were scarified, and joints from two hind paws of each animal were harvested and examined histologically. The histological analysis was carried out on the basis of infiltration of inflammatory cells, synovial hyperplasia, cartilage and bone destruction. Most of the histophathological changes were found in the interophalangeal region of the foot. […] Overall, the severity of joint histopathology was correlated with the clinical severity index.

Each structure is given as a SMILES string.

Regarding `CNC(=O)[C@H]1O[C@@H](n2cnc3c(NCc4cccc(I)c4)ncnc32)[C@H](O)[C@@H]1O` [IB-MECA, N^6-(3-iodobenzyl)-adenosine-5′-N-methyluronamide], in data set [1] (WB (FIG. 10A)), the A3AR expression entry is “Modulation in the A3AR itself was noted”. Also, the “decrease in the RANKL protein expression level” value in data set [1] (WB (FIG. 10B)) is listed as 40%. Also, in data set [1] (WB (FIG. 10C)), the “level of IKK” value is “down-regulation”, the “level of NF-κB” value is listed as “reduced level” and the “reduction in the expression level of TNF-α” value was determined as 50%. In addition, in data set [1] (WB, vs control (FIG. 10C)), the “PI3K protein expression level” value is given as “reduction in the protein expression level” and the “PKB/AKT protein expression level” value is “reduction in the protein expression level”. The molecule further returned a half life in data set [2] of 1.5 h. For the same molecule, in data set [3] (AIA rats, 10 μg/kg orally twice daily from day 14), the paw edema result is recorded as “significantly decreased”. The “inhibition in the paw thickness” value in data set [3] (AIA rats, 10 μg/kg orally twice daily from day 14 (FIG. 1B)) was 35%±1.2. In addition, in data set [3] (AIA rats, 10 μg/kg orally twice daily from day 14, score 0-4 of each limb, control 8.7±0.76 (FIG. 1A)), the “maximal clinical arthritic score” value was found to be 4.8±0.95. Further, in data set [3] (representative paw vs control group (FIG. 1C)), the “paw appearance (redness and swelling)” value is recorded as “appears completely normal”. For the same molecule, the “clinical and pathological manifestations of arthritis” value in data set [4] was “efficacious in preventing the clinical and pathological manifestations of arthritis”. Further, the “half life in plasma” value in data set [5] is 8 to 10 h. Further, the bone loss entry in data set [6] (AIA rat model, summary statement) is recorded as “prevents bone loss”. For the same molecule, the “fibrosis and hyperplasia of the synovia” value in data set [6] (day 23 (FIGS. 3A-3B)) was “almost no the fibrosis and mild hyperplasia of the synovia”. In addition, the pannus tissue development result in data set [6] (day 23 (FIGS. 4A-4B)) is recorded as “mild evidence for a development of pannus tissue”. The “cartilage texture / destruction” value in data set [6] (day 23 (FIGS. 5A-5B)) is “appeared to be normal”. In data set [6] (day 23 (FIGS. 8A-8B)), the presence of osteoblasts entry was “low presence of osteoblasts”. The new bone formation entry in data set [6] (day 23 (FIGS. 9A-9B)) is on record as “slight new bone formation”. In addition, in data set [6] (day 23, in comparison to the control group (FIGS. 6A-6B)), the “reduction in the appearance of osteoclasts” value was determined as 73%. Further, the “inflammatory changes in the joints, mean total score” value in data set [6] (day 23, score 0-4, control 3.2±0.14 (FIGS. 2A-2B)) is recorded as 0.4±0.034. Further, the “histopathological changes in the knee region” value in data set [6] (day 23 after disease induction, vs vehicle group) is reported as “remained intact”.

The values above are taken from US20080051364A1, “Therapeutic Treatment of Accelerated Bone Resorption” (priority 2004, published 2008).
